Test results taken from paper PMC2254445, “Statistical learning of peptide retention behavior in chromatographic separations: a new kernel-based approach for computational proteomics” (BMC Bioinformatics, 2007).

Experiment: Peptide retention time in capillary IP-RP-HPLC with ESI-MS detection
Assay type: physicochemical
Details: vds1 (verified peptides, tryptic digest of protein mixture 1), 50 × 0.2 mm monolithic poly-(styrene/divinylbenzene) column, gradient 0–40% acetonitrile in 0.05% (v/v) aqueous trifluoroacetic acid in 60 min, 55°C, 2 μl/min; for observed retention time: in s (unit assumed); for normalized retention time (NRT): retention times scaled linearly so that TCVADESHAGCEK = 0.1 and MPCTEDYLSLILNR = 0.9
From the text: The datasets for training and evaluation of the retention time predictor had to fulfill two basic requirements. First, the identity of the studied peptides had to be known with high certainty in order to avoid incorrect sequence annotations for the training dataset, and second, retention times had to be measured with high reproducibility. Altogether, we measured 19 different proteins, which were purchased from Sigma (St. Louis, MO) or Fluka (Buchs, Switzerland). To avoid excessive overlapping of peptides in the chromatographic separations, the proteins were divided into three artificial protein mixtures and subsequently digested using trypsin (Promega, Madison, WI) using published protocols. The protein mixtures contained the following proteins in concentrations between 0.4 – 3.2 pmol/μl:
Mixture 1: β-casein (bovine milk), conalbumin (chicken egg white), myelin basic protein (bovine), hemoglobin (human), leptin (human), creatine phosphokinase (rabbit muscle), α1-acid-glycoprotein (human plasma), albumin (bovine serum). […]
Adding albumin to each protein mixture was performed because in each run, there had to be an identical set of peptides to normalize the retention times. The resulting peptide mixtures were then separated using capillary IP-RP-HPLC and subsequently identified by electrospray ionization mass spectrometry (ESI-MS) as described in detail in [37, 38]. The separations were carried out in a capillary/nano HPLC system (Model Ultimate 3000, Dionex Benelux, Amsterdam, The Netherlands) using a 50 × 0.2 mm monolithic poly-(styrene/divinylbenzene) column (Dionex Benelux) and a gradient of 0–40% acetonitrile in 0.05% (v/v) aqueous trifluoroacetic acid in 60 min at 55°C. The injection volume was 1 μl, and each digest was analyzed in triplicate at a flow rate of 2 μl/min. On-line ESI-MS detection was carried out with a quadrupole ion-trap mass spectrometer (Model esquire HCT, Bruker Daltonics, Bremen, Germany).
Peptides were identified on the basis of their tandem mass spectra (maximum allowed mass deviations: precursor ions: ± 1.3 Da, fragment ions: ± 0.3 Da) using Mascot (version 2.1.03). The database was the Mass Spectrometry Database, MSDB (version 2005-02-27) restricted to chordata (vertebrates and relatives). We allowed one missed cleavage as well as charges 1+, 2+ and 3+. The mass values were monoisotopic. The significance level of the significance threshold score for the peptide hits was 0.05. Since the amino acid sequences of the 19 proteins of our mixtures are known, we could verify the identifications by sequence comparison with the protein sequences. To avoid random verifications, we restricted the peptide length to be equal or greater than six. The whole process led to two datasets for each protein mixture – one which only contained the verified peptides and the other one with all Mascot identifications. In this paper, we call the datasets containing the verified peptide sequences vds and the datasets with all Mascot identifications ds. The vdss are used to train the predictors and the dss are used to access the classification performance of the identification process.
We chose two standard peptides which were identified in all of the runs. One of these peptides, which had the amino acid sequence TCVADESHAGCEK, eluted very early and the other one, which had the amino acid sequence MPCTEDYLSLILNR, eluted very late. We scaled the retention times linearly so that the early eluting peptide got an NRT of 0.1 and the late eluting peptide an NRT of 0.9. All peptides with an NRT below zero or above 1 were removed. The lists of identified peptides of vds1, vds2 and vds3, together with their respective retention times, are available as Additional files 1, 2 and 3 in the supplementary material.

Substance: CLDGSR [verified tryptic peptide, vds1]
- observed retention time: 169
- normalized retention time (NRT): 0.1101

Substance: GACLLPK [verified tryptic peptide, vds1]
- observed retention time: 453
- normalized retention time (NRT): 0.2458

Substance: WCTISSPEEK [verified tryptic peptide, vds1]
- observed retention time: 697
- normalized retention time (NRT): 0.3623

Substance: SLHTLFGDELCK [verified tryptic peptide, vds1]
- observed retention time: 1196
- normalized retention time (NRT): 0.6014

Substance: KSCHTAVGR [verified tryptic peptide, vds1]
- observed retention time: 59
- normalized retention time (NRT): 0.05729

Substance: TGTCNFDEYFSEGCAPGSPPNSR [verified tryptic peptide, vds1]
- observed retention time: 1370
- normalized retention time (NRT): 0.6845

Substance: DVCKNYQEAK [verified tryptic peptide, vds1]
- observed retention time: 119
- normalized retention time (NRT): 0.08607

Substance: CCTESLVNR [verified tryptic peptide, vds1]
- observed retention time: 360
- normalized retention time (NRT): 0.2011

Substance: NLQMDDFELLCTDGR [verified tryptic peptide, vds1]
- observed retention time: 1581
- normalized retention time (NRT): 0.7853

Substance: NLQMDDFELLCTDGRR [verified tryptic peptide, vds1]
- observed retention time: 1522
- normalized retention time (NRT): 0.7573

Substance: TSCHTGLGR [verified tryptic peptide, vds1]
- observed retention time: 76
- normalized retention time (NRT): 0.06527

Substance: RPCFSALTPDETYVPK [verified tryptic peptide, vds1]
- observed retention time: 1337
- normalized retention time (NRT): 0.6687

Substance: ECNLAEVPTHAVVVRPEK [verified tryptic peptide, vds1]
- observed retention time: 1126
- normalized retention time (NRT): 0.5677

Substance: LCQLCQGSGGIPPEK [verified tryptic peptide, vds1]
- observed retention time: 855
- normalized retention time (NRT): 0.4382

Substance: DKCEPLEK [verified tryptic peptide, vds1]
- observed retention time: 129
- normalized retention time (NRT): 0.09093

Substance: LKPDPNTLCDEFK [verified tryptic peptide, vds1]
- observed retention time: 1112
- normalized retention time (NRT): 0.5611

Substance: EQLGEFYEALDCLRIPK [verified tryptic peptide, vds1]
- observed retention time: 1949
- normalized retention time (NRT): 0.9614

Substance: NECFLSHKDDSPDLPK [verified tryptic peptide, vds1]
- observed retention time: 944
- normalized retention time (NRT): 0.4804

Substance: YICDNQDTISSK [verified tryptic peptide, vds1]
- observed retention time: 404
- normalized retention time (NRT): 0.2223

Substance: YNGVFQECCQAEDK [verified tryptic peptide, vds1]
- observed retention time: 775
- normalized retention time (NRT): 0.3998

Substance: WSVVSNGDVECTVVDETK [verified tryptic peptide, vds1]
- observed retention time: 1250
- normalized retention time (NRT): 0.6268

Substance: TCNPSDILQMCSFLEGK [verified tryptic peptide, vds1]
- observed retention time: 1877
- normalized retention time (NRT): 0.9271

Substance: EYEATLEECCAK [verified tryptic peptide, vds1]
- observed retention time: 628
- normalized retention time (NRT): 0.3297

Substance: EQLGEFYEALDCLR [verified tryptic peptide, vds1]
- observed retention time: 1723
- normalized retention time (NRT): 0.8534

Substance: FFSASCVPGATIEQK [verified tryptic peptide, vds1]
- observed retention time: 1189
- normalized retention time (NRT): 0.5977

Substance: VGGHAAEYGAEALER [verified tryptic peptide, vds1]
- observed retention time: 643
- normalized retention time (NRT): 0.3365

Substance: CCTKPESER [verified tryptic peptide, vds1]
- observed retention time: 47
- normalized retention time (NRT): 0.05163

Substance: ETYGDMADCCEK [verified tryptic peptide, vds1]
- observed retention time: 490
- normalized retention time (NRT): 0.2635

Substance: DDPHACYSTVFDKLK [verified tryptic peptide, vds1]
- observed retention time: 1174
- normalized retention time (NRT): 0.5908

Substance: IQWCAVGK [verified tryptic peptide, vds1]
- observed retention time: 727
- normalized retention time (NRT): 0.3767

Substance: NAPYSGYSGAFHCLK [verified tryptic peptide, vds1]
- observed retention time: 1104
- normalized retention time (NRT): 0.5571

Substance: GYTLPPHCSR [verified tryptic peptide, vds1]
- observed retention time: 543
- normalized retention time (NRT): 0.2886

Substance: DEYELLCLDGSR [verified tryptic peptide, vds1]
- observed retention time: 1144
- normalized retention time (NRT): 0.5761

Substance: SHCIAEVEK [verified tryptic peptide, vds1]
- observed retention time: 238
- normalized retention time (NRT): 0.1429

Substance: GTFAALSELHCDK [verified tryptic peptide, vds1]
- observed retention time: 1028
- normalized retention time (NRT): 0.5207

Substance: GTFAALSELHCDKLHVDPENFK [verified tryptic peptide, vds1]
- observed retention time: 1645
- normalized retention time (NRT): 0.8158

Substance: LRCASIQK [verified tryptic peptide, vds1]
- observed retention time: 221
- normalized retention time (NRT): 0.1348

Substance: ECCDKPLLEK [verified tryptic peptide, vds1]
- observed retention time: 459
- normalized retention time (NRT): 0.2486

Substance: MPCTEDYLSLILNR [late eluting standard peptide identified in all runs; verified tryptic peptide, vds1]
- observed retention time: 1821

Substance: TCVADESHAGCEK [early eluting standard peptide identified in all runs; verified tryptic peptide, vds1]
- observed retention time: 148

Substance: DDPHACYSTVFDK [verified tryptic peptide, vds1]
- observed retention time: 809
- normalized retention time (NRT): 0.4159

Substance: LFTFHADICTLPDTEK [verified tryptic peptide, vds1]
- observed retention time: 1608
- normalized retention time (NRT): 0.7983

Substance: ECCHGDLLECADDR [verified tryptic peptide, vds1]
- observed retention time: 700
- normalized retention time (NRT): 0.364
